Results as given in article PMC8044911, “Research on the Interaction Mechanism Between α Mino-Phosphonate Derivative Q-R and Harpin-Binding Protein 1 in Tobacco (Nicotiana tabacum) Plants” (Frontiers in Microbiology, 2021).

What was measured:
[1] = biological target: T1, HrBP1 (harpin-binding protein 1) (Nicotiana tabacum, UniProt Q5QJB2); assay: isothermal titration calorimetry
T1 construct: full-length ORF (831 bp, 276 aa) in pET28a NdeI/XhoI, E. coli BL21(DE3), HisTrap purified, tag removal not described; about 30 kDa on SDS-PAGE, oligomer about 180 kDa by SEC

[2] = biological target: T1, HrBP1 (harpin-binding protein 1); assay: isothermal titration calorimetry; settings: pH 7.5, 25 °C, 20 mM Tris-HCl, 100 mM NaCl
[3] = biological target: the molecule itself; assay: SEC; Superdex 200 10/300 GL, 4°C, 20 mM Tris-HCl, 100 mM NaCl, pH 7.5; mass standards 17-440 kDa; run without and after adding the small molecule Q-R (larger oligomer with Q-R)

Work on `Cc1cccc2sc(N[C@@H](c3cccs3)P(=O)(Oc3ccccc3)Oc3ccccc3)nc12` [Q-R, (R)-diphenyl-1-(4-methylbenzothiazole-2-amino)-1-(thiphene-2-yl)-methylphosphonate] yielded a Kd [1] of 1190 nM.

In the case of `CCOP(=O)(OCC)C(Nc1nc2c(C)cccc2s1)c1ccccc1F` (stereo not drawn) [dufulin], the isothermal titration calorimetry [2] is reported as “weak binding occurred between the dufulin and HrBP1 protein”.

B1: harpin-binding protein 1 (HrBP1) from Nicotiana tabacum (natural protein, UniProt Q5QJB2 1-276, looked up)
chain: MASLLQYSTLPLSNNHCSSSLPSLTCHLSKRSNRNTQKLLEKKKYHIKKSLICQSGIDELAFIELPGTKEAKAELIGSLKLKLLSAVSGLNRGLAASEEDLKKADAAAKELESCAGAVDLSADLDKLQGRWKLIYSSAFSGRTLGGSRPGPPTGRLLPITLGQVFQRIDVLSKDFDNIVELELGAPWPLPPAELTATLAHKFELIGSSTIKITFEKTTVKTTGILSQLPPFEVPRIPDQLRPPSNTGSGEFEVTYIDSDTRVTRGDRGELRVFVIS
notes: full-length gene of 831 bp, 276 amino acids, cloned between NdeI and XhoI of pET28a; tryptic peptides matched UniProt Q5QJB2; Removal of the tag is not described; also called HrBP1 recombinant protein; source: E. coli BL21(DE3), pET28a-HrBP1, purified (HisTrap column, desalting column, ultrafiltration)
B1: binds [3].
